Measured values taken from US12077503B2, “Substituted cyclic amides and their use as herbicides” (FMC CORPORATION, priority 2015, dated 2024).

How the values were obtained:
Format in all cases: in vivo
[1] = test system: Kochia (Kochia scoparia); assay: Test A preemergence; conditions: Bassia scoparia, pre-emergence, 240 h
In short: (§1)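 Compounds were formulated in a non-phytotoxic solvent mixture with surfactant and applied as a preemergence directed soil spray after seeding, or sprayed postemergence over plants 2 to 10 cm tall at the one- to two-leaf stage. Evaluation after about 10 d compared treated with untreated controls, using a scale from 0 (no effect) to 100 (complete control).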

[2] = test system: barnyardgrass (Echinochloa crus-galli); assay: Test A preemergence; conditions: Echinochloa crus-galli, pre-emergence, 240 h
In short: as §1

[3] = test system: giant foxtail (Setaria faberii); assay: Test A preemergence; conditions: Setaria faberi, pre-emergence, 240 h
In short: as §1

[4] = test system: pigweed (Amaranthus retroflexus); assay: Test A preemergence; conditions: Amaranthus retroflexus, pre-emergence, 240 h
[5] = test system: ragweed (common ragweed, Ambrosia elatior); assay: Test A preemergence; conditions: Ambrosia artemisiifolia, pre-emergence, 240 h
In short: as §1

[6] = test system: ryegrass, Italian (Italian ryegrass, Lolium multiflorum); assay: Test A preemergence; conditions: Lolium multiflorum, pre-emergence, 240 h
In short: as §1

[7] = test system: Galium (catchweed bedstraw, Galium aparine); assay: Test A postemergence; conditions: Galium, post-emergence, 240 h, 125 g ai/ha, Postemergence; visual injury after approximately 10 d; 0 to 100 scale where 0 is no effect and 100 is complete control; read-out: Plant response rating, Galium
In short: as §1

[8] = test system: Kochia (Kochia scoparia); assay: Test A postemergence; conditions: Bassia scoparia, post-emergence, 240 h, 125 g ai/ha, Postemergence; visual injury after approximately 10 d; 0 to 100 scale where 0 is no effect and 100 is complete control; read-out: Plant response rating, Kochia
In short: as §1

[9] = test system: barnyardgrass (Echinochloa crus-galli); assay: Test A postemergence; conditions: Echinochloa crus-galli, post-emergence, 240 h, 125 g ai/ha, Postemergence; visual injury after approximately 10 d; 0 to 100 scale where 0 is no effect and 100 is complete control; read-out: Plant response rating, Barnyardgrass
In short: as §1

[10] = test system: blackgrass (Alopecurus myosuroides); assay: Test A postemergence; conditions: Alopecurus myosuroides, post-emergence, 240 h, 125 g ai/ha, Postemergence; visual injury after approximately 10 d; 0 to 100 scale where 0 is no effect and 100 is complete control; read-out: Plant response rating, Blackgrass
In short: as §1

[11] = test system: corn (Zea mays); assay: Test A postemergence; conditions: Zea mays, post-emergence, 240 h, 125 g ai/ha, Postemergence; visual injury after approximately 10 d; 0 to 100 scale where 0 is no effect and 100 is complete control
In short: as §1

[12] = test system: giant foxtail (Setaria faberii); assay: Test A postemergence; conditions: Setaria faberi, post-emergence, 240 h, 125 g ai/ha, Postemergence; visual injury after approximately 10 d; 0 to 100 scale where 0 is no effect and 100 is complete control; read-out: Plant response rating, Foxtail, Giant
In short: as §1

[13] = test system: pigweed (Amaranthus retroflexus); assay: Test A postemergence; conditions: Amaranthus retroflexus, post-emergence, 240 h, 125 g ai/ha, Postemergence; visual injury after approximately 10 d; 0 to 100 scale where 0 is no effect and 100 is complete control; read-out: Plant response rating, Pigweed
In short: as §1

[14] = test system: ragweed (common ragweed, Ambrosia elatior); assay: Test A postemergence; conditions: Ambrosia artemisiifolia, post-emergence, 240 h, 125 g ai/ha, Postemergence; visual injury after approximately 10 d; 0 to 100 scale where 0 is no effect and 100 is complete control; read-out: Plant response rating, Ragweed
In short: as §1

[15] = test system: ryegrass, Italian (Italian ryegrass, Lolium multiflorum); assay: Test A postemergence; conditions: Lolium multiflorum, post-emergence, 240 h, 125 g ai/ha, Postemergence; visual injury after approximately 10 d; 0 to 100 scale where 0 is no effect and 100 is complete control; read-out: Plant response rating, Ryegrass, Italian
In short: as §1

[16] = test system: wheat (Triticum aestivum); assay: Test A postemergence; conditions: Triticum aestivum, post-emergence, 240 h, 125 g ai/ha, Postemergence; visual injury after approximately 10 d; 0 to 100 scale where 0 is no effect and 100 is complete control; read-out: Plant response rating, Wheat
In short: as §1

[17] = test system: barnyardgrass (Echinochloa crus-galli); assay: Test B flooded paddy test; conditions: Echinochloa crus-galli, Flood, 250 g ai/ha; scale of 0 to 100 where 0 is no effect and 100 is complete control; read-out: Barnyardgrass plant response rating
In short: (§2)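 Evaluation by eye, against controls, occurred 13–15 d post-treatment in a greenhouse, using a 0 (no effect) to 100 (complete control) scale. Application was into the paddy water, 3 cm deep over the soil, on 2-leaf plants.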

[18] = test system: ducksalad (Heteranthera limosa); assay: Test B flooded paddy test; conditions: Heteranthera limosa, Flood, 250 g ai/ha; scale of 0 to 100 where 0 is no effect and 100 is complete control; read-out: Ducksalad plant response rating
In short: as §2

[19] = test system: rice (Oryra sativa); assay: Test B flooded paddy test; conditions: Oryza sativa, Flood, 250 g ai/ha; scale of 0 to 100 where 0 is no effect and 100 is complete control; read-out: Rice plant response rating
In short: as §2

[20] = test system: sedge, umbrella (small-flower umbrella sedge, Cyperus difformis); assay: Test B flooded paddy test; conditions: Cyperus difformis, Flood, 250 g ai/ha; scale of 0 to 100 where 0 is no effect and 100 is complete control; read-out: Sedge, Umbrella plant response rating
In short: as §2

Compound: O=C(Nc1ccccc1F)[C@H]1C(=S)NC[C@@H]1c1ccc(Cl)cc1 (racemic) [Compound 947]
- pest or weed control at 125 g/ha ([1]; 125 g ai/ha, Preemergence, visual injury rating after approximately 10 d, read-out: Kochia plant response rating (0 to 100 scale, 0 is no effect, 100 is complete control)): 0%
- pest or weed control at 500 g/ha ([1]; 500 g ai/ha, preemergence, visual injury rating about 10 d after treatment, 0 to 100 scale (0 no effect, 100 complete control), read-out: Kochia plant response rating): 40%
- pest or weed control at 125 g/ha ([2]; 125 g ai/ha, Preemergence, visual injury rating after approximately 10 d, read-out: Barnyardgrass plant response rating (0 to 100 scale, 0 is no effect, 100 is complete control)): 30%
- pest or weed control at 500 g/ha ([2]; 500 g ai/ha, preemergence, visual injury rating about 10 d after treatment, 0 to 100 scale (0 no effect, 100 complete control), read-out: Barnyardgrass plant response rating): 60%
- pest or weed control at 125 g/ha ([3]; 125 g ai/ha, Preemergence, visual injury rating after approximately 10 d, read-out: Foxtail, Giant plant response rating (0 to 100 scale, 0 is no effect, 100 is complete control)): 50%
- pest or weed control at 500 g/ha ([3]; 500 g ai/ha, preemergence, visual injury rating about 10 d after treatment, 0 to 100 scale (0 no effect, 100 complete control), read-out: Foxtail, Giant plant response rating): 80%
- pest or weed control at 125 g/ha ([4]; 125 g ai/ha, Preemergence, visual injury rating after approximately 10 d, read-out: Pigweed plant response rating (0 to 100 scale, 0 is no effect, 100 is complete control)): 0%
- pest or weed control at 500 g/ha ([4]; 500 g ai/ha, preemergence, visual injury rating about 10 d after treatment, 0 to 100 scale (0 no effect, 100 complete control), read-out: Pigweed plant response rating): 0%
- pest or weed control at 125 g/ha ([5]; 125 g ai/ha, Preemergence, visual injury rating after approximately 10 d, read-out: Ragweed plant response rating (0 to 100 scale, 0 is no effect, 100 is complete control)): 0%
- pest or weed control at 500 g/ha ([5]; 500 g ai/ha, preemergence, visual injury rating about 10 d after treatment, 0 to 100 scale (0 no effect, 100 complete control), read-out: Ragweed plant response rating): 0%
- pest or weed control at 125 g/ha ([6]; 125 g ai/ha, Preemergence, visual injury rating after approximately 10 d, read-out: Ryegrass, Italian plant response rating (0 to 100 scale, 0 is no effect, 100 is complete control)): 0%
- pest or weed control at 500 g/ha ([6]; 500 g ai/ha, preemergence, visual injury rating about 10 d after treatment, 0 to 100 scale (0 no effect, 100 complete control), read-out: Ryegrass, Italian plant response rating): 0%
- pest or weed control at 125 g/ha [7]: 0%
- pest or weed control at 125 g/ha [8]: 0%
- pest or weed control at 125 g/ha [9]: 20%
- pest or weed control at 125 g/ha [10]: 0%
- Corn plant response rating (crop injury, 0 = no effect, 100 = complete kill) at 125 g/ha [11]: 0%
- pest or weed control at 125 g/ha [12]: 30%
- pest or weed control at 125 g/ha [13]: 0%
- pest or weed control at 125 g/ha [14]: 0%
- pest or weed control at 125 g/ha [15]: 0%
- plant injury at 125 g/ha [16]: 0%
- pest or weed control at 250 g/ha [17]: 0%
- pest or weed control at 250 g/ha [18]: 65%
- pest or weed control at 250 g/ha [19]: 0%
- pest or weed control at 250 g/ha [20]: 0%
